# From patent US20050054582A1, “Para-amino benzoic acids as integrin antagonists” (priority 2001, published 2005)
# What was measured:
# [1] = system: adhesion of Ramos cells to VCAM-1; test: Adhesion of Ramos cells to immobilized VCAM-1 (domains 1-3); assay type: cell-based; settings: Homo sapiens, Ramos
# Excerpt: In Vitro Assay: Adhesion of Ramos Cells to Immobilized VCAM-1 (Domains 1-3) Preparation of VCAM-1 (Extracellular Domains 1-3)
# Complementary DNA (cDNA) encoding 7-domain form of VCAM-1 (GenBank accession #M60335) was obtained using Rapid-Screen™ cDNA library panels (OriGene Technologies, Inc) at Takara Gene Analysis Center (Shiga, Japan). The primers used were 5′-CCAAGGCAGAGTACGCAAAC-3′ (sense) and 5′-TGGCAGGTATTATTAAGGAG-3′ (antisense). PCR amplification of the 3-domain VCAM-1 cDNA was perform using Pfu DNA polymerase (Stratagene) with the following sets of primers: (U-VCAMd1-3) 5′-CCATATGGTACCTGATCAATTTAAAATCGAGACCACCCCAGAA-3′; (L-VCAMdl-3) 5-CCATATAGCAATCCTAGGTCCAGGGGAGATCTCAACAGTAAA-3′. PCR cycle was 94° C. for 45 sec, 55° C. for 45 sec, 72° C. for 2 min, repeating 15 cycles. After the purification of the PCR product, the fragment was digested with KpnI-AvrII. The digested fragment was ligated into pBluescript IISK(−) (Strategene), which was linearized by digesting with KpnI-XhoI. The ligation was followed by transformation to a Dam/Dcm methylase-free E. coli strain SCS110 (Strategene) to create the donor plasmid […]. To direct VCAM-1 molecule into the insect cell secretory pathway, the VCAM-1 coding sequence was fused to signal peptide sequence of honeybee melittin. The resulting melittin-VCAM fusion was placed in correct orientation to the baculovirus polyhedrin promoter. Baculovirus transfer vector containing first 3-domain form VCAM-1 (pH10) was constructed by ligation of 0.9 kb fragment from AvrII/Klenow/BclI digests of pH7 into SalI/Klenow/BamHI digests of pMelBacB (Invitrogen). Recombinant baculovirus was generated by using Bac-N-Blue™ Transfection kit (Invitrogen) according to the manufacture's instruction. The recombinant virus was amplified by infection to High-Five™ insect cells for 5-6 days, and virus titer was determined by plaque assay.
# High-Five™ insect cells were pelleted in a 225 ml conical tube by centrifugation at 1000 rpm for 5 min. After discarding the supernatant, the pellet was resuspended in 1.5×10^9 pfu (MOI=5) of high-titer virus solution, followed by incubation for 1.5 hours at room temperature. The cells were pelleted again and washed once in fresh Express Five™ serum free medium. The cells were pelleted again and finally, resuspended in 200 ml of fresh Express Five TM medium, transferred to a 1,000 ml shaker flask, and incubated in a shaker at 27° C., 130 rpm, for 48 hours before the culture supernatant was collected. The purification of 3-domain form of VCAM-1 from the culture supernatant was performed by one-step anion exchange chromatography. Protein concentration was determined by using Coomassie protein assay reagent (Pierce) according to the manufacture's instruction.
# Preparation of VCAM-1 Coated Microtiter Plates
# Recombinant human VCAM-1 (extracellular domains 1-3) was dissolved at 1.0 μg/ml in PBS. Each well of the microtiter plates (Nalge Nunc International, Fluoronunc Cert, 437958) was coated with 100 μl of substrate or for background control with buffer alone for 15 hours at 4 C. After discarding the substrate solution, the wells were blocked using 150 μl per well of block solution (Kirkegaard Perry Laboratories, 50-61-01) for 90 minutes. The plate was washed with wash buffer containing 24 mM Tris-HCl (pH 7.4), 137 mM NaCl, […] and 2 mM MnCl2 just before addition of the assay.
# In Vitro Assay using Ramos Cells
# Preparation of Fluorescence Labeled Ramos Cells:
# Ramos cells (American Type Culture Collection, Clone CRL-1596) were cultured in RPMI 1640 medium (Nikken Bio Medical Laboratory, CM1101) supplemented with 10% fetal bovine serum (Hyclone, A-1119-L), 100 U/ml penicilin (Gibco BRL, 15140-122) and 100 μg/ml streptomycin (Gibco BRL, 15140-122) in a humidified incubator at 37° C. with 5% CO2. […]
IC50 [1] [nM],melting point [°C],Compound
< 500,252 to 253,"O=C(CN(CCc1ccccn1)C(=O)Cc1ccc2nc(Nc3ccccc3)oc2c1)Nc1ccc(C(=O)O)cc1 [Example 76, 4-({N-[(2-anilino-1,3-benzoxazol-6-yl)acetyl]-N-[2-(2-pyridinyl)ethyl]glycyl}amino)benzoic acid]"
500 to 2000,162 to 165,O=C(CN(CCc1cccc(Cl)c1)C(=O)Cc1ccc2nc(Nc3ccccc3)oc2c1)Nc1ccc(C(=O)O)cc1 [Example 78]
2000 to 10000,170 to 171,O=C(CN(CCc1ccc(Cl)c(Cl)c1)C(=O)Cc1ccc2nc(Nc3ccccc3)oc2c1)Nc1ccc(C(=O)O)cc1 [Example 79]
> 10000,156 to 158,O=C(CN(CCc1ccc(Oc2ccc(Cl)cc2)cc1)C(=O)Cc1ccc2nc(Nc3ccccc3)oc2c1)Nc1ccc(C(=O)O)cc1 [Example 80]
< 500,267 to 268,"Cc1ccccc1Nc1nc2ccc(CC(=O)NCC(=O)Nc3ccc(C(=O)O)cc3)cc2o1 [Example 81, 4-{[N-({2-[(2-methylphenyl)amino]-1,3-benzoxazol-6-yl}acetyl)glycyl]-amino}benzoic acid]"
< 500,232 to 233,"Cc1ccccc1Nc1nc2ccc(CC(=O)N(CCc3ccccc3)CC(=O)Nc3ccc(C(=O)O)cc3)cc2o1 [Example 82, 4-{[N-({2-[(2-methylphenyl)amino]-1,3-benzoxazol-6-yl}acetyl)-N-(2-phenylethyl)glycyl]amino}benzoic acid]"
< 500,175 to 176,"Cc1ccccc1Nc1nc2ccc(CC(=O)N(CCc3ccccn3)CC(=O)Nc3ccc(C(=O)O)cc3)cc2o1 [Example 83, 4-({N-({2-[(2-methylphenyl)amino]-1,3-benzoxazol-6-yl}acetyl)-N-[2-(2-pyridinyl)ethyl]glycyl}amino)benzoic acid]"
